Measured values as given in PubChem BioAssay AID256 (DTP/NCI, 2004).
Several values for one entry are separate records, joined by “and”; a condition that tells them apart may be missing. Equal values may be shown once. Inconclusive results and toxic doses are left out.

System: CD2F1 mice, L1210 leukemia ip, survival T/C
Experiment: NCI In Vivo Anticancer Drug Screen. Data for tumor model L1210 Leukemia (intraperitoneal) in CD2F1 (CDF1) mice
Conditions: higher = longer survival
Procedure, shortened: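 Tumor-bearing mice (transplanted tumor) were split into treated and vehicle control groups, and the measured endpoint of each treated group was divided by that of its vehicle controls.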

[1] = endpoint: mean survival time, dose: 12.5 mg/kg/injection, schedule: Q01DX009 (ip), vehicle: Klucel (hydroxypropylcellulose) (HPC)
[2] = endpoint: mean survival time, dose: 25.0 mg/kg/injection, schedule: Q01DX009 (ip), vehicle: Klucel (hydroxypropylcellulose) (HPC)
[3] = endpoint: mean survival time, dose: 100.0 mg/kg/injection, schedule: Q01DX009 (ip), vehicle: Klucel (hydroxypropylcellulose) (HPC)
[4] = endpoint: mean survival time, dose: 200.0 mg/kg/injection, schedule: Q01DX009 (ip), vehicle: Klucel (hydroxypropylcellulose) (HPC)
[5] = endpoint: mean survival time, dose: 100.0 mg/kg/injection, schedule: Q01DX001 (ip), vehicle: saline
[6] = endpoint: mean survival time, dose: 200.0 mg/kg/injection, schedule: Q01DX001 (ip), vehicle: saline
[7] = endpoint: mean survival time, dose: 400.0 mg/kg/injection, schedule: Q01DX001 (ip), vehicle: saline
[8] = endpoint: mean survival time, dose: 100.0 mg/kg/injection, schedule: Q04DX003 (ip), vehicle: saline with Tween-80
[9] = endpoint: mean survival time, dose: 200.0 mg/kg/injection, schedule: Q04DX003 (ip), vehicle: saline with Tween-80
[10] = endpoint: mean survival time, dose: 400.0 mg/kg/injection, schedule: Q04DX003 (ip), vehicle: saline with Tween-80
[11] = endpoint: mean survival time, dose: 100.0 mg/kg/injection, schedule: Q01DX009 (ip), vehicle: saline with Tween-80
[12] = endpoint: mean survival time, dose: 50.0 mg/kg/injection, schedule: Q01DX009 (ip), vehicle: Klucel (hydroxypropylcellulose) (HPC)
[13] = endpoint: mean survival time, dose: 100.0 mg/kg/injection, schedule: Q04DX002 (ip), vehicle: saline with Tween-80
[14] = endpoint: mean survival time, dose: 200.0 mg/kg/injection, schedule: Q04DX002 (ip), vehicle: saline with Tween-80
[15] = endpoint: mean survival time, dose: 200.0 mg/kg/injection, schedule: Q01DX009 (ip), vehicle: saline with Tween-80
[16] = endpoint: mean survival time, dose: 400.0 mg/kg/injection, schedule: Q01DX009 (ip), vehicle: saline with Tween-80
[17] = endpoint: mean survival time, dose: 400.0 mg/kg/injection, schedule: Q04DX002 (ip), vehicle: saline with Tween-80

For Cc1c(O)c2c(c(O)c1Cc1ccc(C#N)cc1)C(=O)c1ccccc1C2=O, the T/C [1] was 91 % of control, the T/C [2] was 96 % of control and the T/C [3] was 90 % of control. The T/C [4] was 94 % of control.

CC12CCC3(CO3)CC1CCC1C2CCC2(C)C1CCC21CO1 (stereo not given) was tested, and the T/C (endpoint: mean survival time, dose: 75.0 mg/kg/injection, schedule: Q01DX001 (ip), vehicle: saline with Tween-80) was 104 % of control, the T/C (endpoint: mean survival time, dose: 150.0 mg/kg/injection, schedule: Q01DX001 (ip), vehicle: saline with Tween-80) was 106 % of control and the T/C (endpoint: mean survival time, dose: 300.0 mg/kg/injection, schedule: Q01DX001 (ip), vehicle: saline with Tween-80) was 113 % of control.

For COc1ccc2c(c1)C1(C)CCCC(C#N)=C1CC2 (stereo not given), the T/C [5] was 96 % of control, the T/C [6] was 96 % of control and the T/C [7] was 92 % of control.

In the case of c1ccc2c(c1)CCCN2, the T/C (endpoint: mean survival time, dose: 31.5 mg/kg/injection, schedule: Q04DX003 (ip), vehicle: saline with Tween-80) is reported as 98 % of control, the T/C (endpoint: mean survival time, dose: 50.0 mg/kg/injection, schedule: Q04DX003 (ip), vehicle: saline with Tween-80) is reported as 102 % of control and the T/C (endpoint: mean survival time, dose: 63.0 mg/kg/injection, schedule: Q04DX003 (ip), vehicle: saline with Tween-80) is reported as 98 % of control. For the same molecule, the T/C [8] was 102 % of control, the T/C (endpoint: mean survival time, dose: 125.0 mg/kg/injection, schedule: Q04DX003 (ip), vehicle: saline with Tween-80) was 106 % of control and the T/C [9] was 93 % of control. The T/C [10] was 86 % of control.

O=C(c1ccccc1)c1cc2ccccc2o1 was tested, and the T/C (endpoint: mean survival time, dose: 50.0 mg/kg/injection, schedule: Q01DX009 (ip), vehicle: saline + alcohol) was 102 % of control, the T/C (endpoint: mean survival time, dose: 100.0 mg/kg/injection, schedule: Q01DX009 (ip), vehicle: saline + alcohol) was 105 % of control and the T/C (endpoint: mean survival time, dose: 200.0 mg/kg/injection, schedule: Q01DX009 (ip), vehicle: saline + alcohol) was 93 % of control.

With O=c1nc(NCCc2c[nH]c3ccccc23)ccn1C1OC(CO)C(O)C1O (stereo not given) the T/C (endpoint: median survival time, dose: 12.5 mg/kg/injection, schedule: Q01DX005 (ip), vehicle: distilled water + Tween-80) was 101 % of control, the T/C (endpoint: median survival time, dose: 25.0 mg/kg/injection, schedule: Q01DX005 (ip), vehicle: distilled water + Tween-80) was 100 % of control and the T/C (endpoint: median survival time, dose: 50.0 mg/kg/injection, schedule: Q01DX005 (ip), vehicle: distilled water + Tween-80) was 98 % of control. For the same molecule, the T/C (endpoint: median survival time, dose: 100.0 mg/kg/injection, schedule: Q01DX005 (ip), vehicle: distilled water + Tween-80) was 98 % of control and the T/C (endpoint: median survival time, dose: 200.0 mg/kg/injection, schedule: Q01DX005 (ip), vehicle: distilled water + Tween-80) was 98 % of control.

With Cc1ccc(NC(=O)OCCSc2ccc(Cl)cc2)cc1C the T/C (endpoint: mean survival time, dose: 50.0 mg/kg/injection, schedule: Q01DX009 (ip), vehicle: saline with Tween-80) was 96 % of control and the T/C [11] was 92 % of control.

C=CCOc1c(C)cc(C)cc1C was tested, and the T/C [12] was 113 % of control, the T/C [3] was 94 % of control and the T/C [4] was 102 % of control.

For O=[N+]([O-])c1ccc(N/N=C/c2ccnc3ccccc23)cc1, the T/C (endpoint: mean survival time, dose: 100.0 mg/kg/injection, schedule: Q04DX003 (ip), vehicle: Klucel (hydroxypropylcellulose) (HPC)) was 89 % of control, the T/C (endpoint: mean survival time, dose: 200.0 mg/kg/injection, schedule: Q04DX003 (ip), vehicle: Klucel (hydroxypropylcellulose) (HPC)) was 91 % of control and the T/C (endpoint: mean survival time, dose: 400.0 mg/kg/injection, schedule: Q04DX003 (ip), vehicle: Klucel (hydroxypropylcellulose) (HPC)) was 97 % of control.

For CC(C)C(C(N)=O)C(N)=O, the T/C [13] was 100 % of control and the T/C [14] was 100 % of control.

In the case of Cc1cccc(C(=O)CC(O)(C(F)(F)F)C(F)(F)F)c1, the T/C [11] is reported as 98 % of control, the T/C [15] is reported as 95 % of control and the T/C [16] is reported as 104 % of control.

NC(=S)N/N=C/c1ccc(C(F)(F)F)cn1 was tested, and the T/C (endpoint: mean survival time, dose: 12.5 mg/kg/injection, schedule: Q04DX002 (ip), vehicle: saline with Tween-80) was 100 % of control and 102 % of control, the T/C (endpoint: mean survival time, dose: 13.3 mg/kg/injection, schedule: Q01DX001 (ip), vehicle: saline with Tween-80) was 96 % of control and the T/C (endpoint: mean survival time, dose: 13.3 mg/kg/injection, schedule: Q01DX009 (ip), vehicle: Klucel (hydroxypropylcellulose) (HPC)) was 100 % of control. The T/C (endpoint: mean survival time, dose: 13.3 mg/kg/injection, schedule: Q01DX009 (ip), vehicle: saline with Tween-80) was 122 % of control, the T/C (endpoint: mean survival time, dose: 20.0 mg/kg/injection, schedule: Q01DX001 (ip), vehicle: saline with Tween-80) was 100 % of control and the T/C (endpoint: mean survival time, dose: 20.0 mg/kg/injection, schedule: Q01DX009 (ip), vehicle: Klucel (hydroxypropylcellulose) (HPC)) was 96 % of control. For the same molecule, the T/C (endpoint: mean survival time, dose: 20.0 mg/kg/injection, schedule: Q01DX009 (ip), vehicle: saline with Tween-80) was 171 % of control, the T/C (endpoint: mean survival time, dose: 25.0 mg/kg/injection, schedule: Q04DX002 (ip), vehicle: saline with Tween-80) was 105 % of control and 107 % of control and the T/C (endpoint: mean survival time, dose: 30.0 mg/kg/injection, schedule: Q01DX001 (ip), vehicle: saline with Tween-80) was 107 % of control. For the same molecule, the T/C (endpoint: mean survival time, dose: 30.0 mg/kg/injection, schedule: Q01DX009 (ip), vehicle: Klucel (hydroxypropylcellulose) (HPC)) was 106 % of control, the T/C (endpoint: mean survival time, dose: 45.0 mg/kg/injection, schedule: Q01DX001 (ip), vehicle: saline with Tween-80) was 108 % of control and the T/C (endpoint: mean survival time, dose: 45.0 mg/kg/injection, schedule: Q01DX009 (ip), vehicle: saline with Tween-80) was 102 % of control. The T/C (endpoint: mean survival time, dose: 50.0 mg/kg/injection, schedule: Q04DX002 (ip), vehicle: saline with Tween-80) was 105 % of control and the T/C (endpoint: mean survival time, dose: 67.5 mg/kg/injection, schedule: Q01DX001 (ip), vehicle: saline with Tween-80) was 111 % of control.

For O=C(Nc1ccc(F)c(Cl)c1)N(CCO)C1CCCCC1, the T/C [12] was 91 % of control, the T/C [3] was 102 % of control and the T/C [4] was 95 % of control.

With CCCCCCCCOC(=O)Nc1ccc(S(=O)(=O)N(CCC)CCC)cc1 the T/C [5] was 96 % of control, the T/C [6] was 92 % of control and the T/C [7] was 88 % of control.

In the case of C=C1C(=O)OC2CC1C(OC(=O)/C=C/c1ccccc1)C/C(C)=C/CC/C(C)=C/CCC2(C)O (stereo not given), the T/C [1] is reported as 96 % of control, the T/C [2] is reported as 98 % of control and the T/C [12] is reported as 98 % of control. For the same molecule, the T/C [3] was 102 % of control.

With O=S(=O)(OCCCCCCOS(=O)(=O)c1cccnc1)c1cccnc1 the T/C (endpoint: mean survival time, dose: 10.0 mg/kg/injection, schedule: Q04DX002 (ip), vehicle: saline with Tween-80) was 107 % of control.

For Cc1ccccc1NC(=O)Oc1c(Cl)cc(Cl)c2ccccc12, the T/C [13] was 89 % of control, the T/C [14] was 93 % of control and the T/C [17] was 101 % of control.

For O=C(O)C1C2C=CC3(CN(CCc4ccccc4)C(=O)C13)O2 (stereo not given), the T/C [13] was 95 % of control, the T/C [14] was 95 % of control and the T/C [17] was 103 % of control.

COc1c(CBr)c(CBr)c(OC)c2ccccc12 was tested, and the T/C [8] was 101 % of control, the T/C [9] was 100 % of control and the T/C [10] was 101 % of control.

For Cc1ccc2[nH]c3c(c2c1)CSCC3, the T/C [11] was 104 % of control, the T/C [15] was 102 % of control and the T/C [16] was 102 % of control.
